Reference: publication PMC5218480 (PLoS ONE, 2017)

Tested on: MV-4-11 cells
Assay: Gene expression microarray analysis (Affymetrix PrimeView) and GSEA
Type: cell-based, human
Parameters: RFU PODN (11730768_x_at) / Fold change /veh PODN (11730768_x_at) / RFU LINC00158 (11744669_a_at) / Fold change /veh LINC00158 (11744669_a_at) / RFU DUSP10 (11751237_a_at) / Fold change /veh DUSP10 (11751237_a_at) / RFU ID3 (11757404_x_at) / Fold change /veh ID3 (11757404_x_at) / RFU PLEKHG5 (11737974_s_at) / Fold change /veh PLEKHG5 (11737974_s_at) / RFU LRRC4B (11730491_at) / Fold change /veh LRRC4B (11730491_at) / RFU GIMAP4 (11747438_a_at) / Fold change /veh GIMAP4 (11747438_a_at) / RFU KRT8 (11758183_x_at) / Fold change /veh KRT8 (11758183_x_at) / RFU CNN1 (11734310_a_at) / Fold change /veh CNN1 (11734310_a_at) / RFU VPS37D (11726825_at) / Fold change /veh VPS37D (11726825_at) / RFU C10orf10 (11716522_x_at) / Fold change /veh C10orf10 (11716522_x_at) / RFU KIR2DL2 /// KIR2DL4 /// KIR2DL5A /// KIR2DL5B /// KIR2DS1 /// KIR2DS2 /// KIR2DS3 /// KIR2DS4 /// KIR3DL3 /// KIR3DL3 /// KIR3DS1 (11738374_at) / Fold change /veh KIR2DL2 /// KIR2DL4 /// KIR2DL5A /// KIR2DL5B /// KIR2DS1 /// KIR2DS2 /// KIR2DS3 /// KIR2DS4 /// KIR3DL3 /// KIR3DL3 /// KIR3DS1 (11738374_at) / RFU C1QL1 (11718748_at) / Fold change /veh C1QL1 (11718748_at) / RFU TMPRSS4 (11747572_a_at) / Fold change /veh TMPRSS4 (11747572_a_at) / RFU HAMP (11756126_x_at) / Fold change /veh HAMP (11756126_x_at) / RFU RNFT2 (11725882_a_at) / Fold change /veh RNFT2 (11725882_a_at) / RFU NR4A2 (11747474_a_at) / Fold change /veh NR4A2 (11747474_a_at) / RFU ABCC12 (11746883_a_at) / Fold change /veh ABCC12 (11746883_a_at) / RFU TMEM136 (11760407_x_at) / Fold change /veh TMEM136 (11760407_x_at) / RFU CLDN22 /// WWC2 (11732394_at) / Fold change /veh CLDN22 /// WWC2 (11732394_at) / RFU HLA-DPB1 (11760878_x_at) / Fold change /veh HLA-DPB1 (11760878_x_at) / RFU SPINT1 (11716480_a_at) / Fold change /veh SPINT1 (11716480_a_at) / RFU GAP43 (11754022_s_at) / Fold change /veh GAP43 (11754022_s_at) / RFU A4GNT (11735810_at) / Fold change /veh A4GNT (11735810_at) / RFU PRB3 (11715151_x_at) / Fold change /veh PRB3 (11715151_x_at) / RFU TUBB4B (11761932_at) / Fold change /veh TUBB4B (11761932_at) / RFU CAPN14 (11732068_a_at) / Fold change /veh CAPN14 (11732068_a_at) / RFU TMCC2 (11721928_a_at) / Fold change /veh TMCC2 (11721928_a_at) / RFU IRGQ (11745062_a_at) / Fold change /veh IRGQ (11745062_a_at) / RFU FAM174B (11720279_a_at) / Fold change /veh FAM174B (11720279_a_at) / RFU TMPRSS4 (11748680_a_at) / Fold change /veh TMPRSS4 (11748680_a_at) / RFU FAM212B (11763350_a_at) / Fold change /veh FAM212B (11763350_a_at) / RFU PLEKHG5 (11743358_a_at) / Fold change /veh PLEKHG5 (11743358_a_at) / RFU ZSCAN30 (11745921_a_at) / Fold change /veh ZSCAN30 (11745921_a_at) / RFU CMKLR1 (11741424_a_at) / Fold change /veh CMKLR1 (11741424_a_at) / RFU LOC101060620 /// MAPK8IP1 (11723275_at) / Fold change /veh LOC101060620 /// MAPK8IP1 (11723275_at) / RFU SPTSSB (11747773_x_at) / Fold change /veh SPTSSB (11747773_x_at) / RFU PRSS12 (11739890_at) / Fold change /veh PRSS12 (11739890_at) / RFU BIN1 (11741810_x_at) / Fold change /veh BIN1 (11741810_x_at) / RFU WNT11 (11732464_a_at) / Fold change /veh WNT11 (11732464_a_at) / RFU C10orf10 (11716521_a_at) / Fold change /veh C10orf10 (11716521_a_at) / RFU C5orf56 (11738089_at) / Fold change /veh C5orf56 (11738089_at) / RFU CYB561 (11721691_x_at) / Fold change /veh CYB561 (11721691_x_at) / RFU ANKRD19P (11752326_a_at) / Fold change /veh ANKRD19P (11752326_a_at) / RFU OR2T12 /// OR2T33 /// OR2T8 (11738714_s_at) / Fold change /veh OR2T12 /// OR2T33 /// OR2T8 (11738714_s_at) / RFU VCAN (11748164_a_at) / Fold change /veh VCAN (11748164_a_at) / RFU JSRP1 (11732532_at) / Fold change /veh JSRP1 (11732532_at) / RFU KRTAP10-11 (11738290_x_at) / Fold change /veh KRTAP10-11 (11738290_x_at) / RFU MYO3A (11730013_a_at) / Fold change /veh MYO3A (11730013_a_at) / RFU EBF3 (11725865_a_at) / Fold change /veh EBF3 (11725865_a_at) / RFU CAMK2N1 (11719241_x_at) / Fold change /veh CAMK2N1 (11719241_x_at) / RFU C5orf56 (11738088_a_at) / Fold change /veh C5orf56 (11738088_a_at) / RFU OLFML3 (11715873_a_at) / Fold change /veh OLFML3 (11715873_a_at) / RFU LOC100653217 /// NTM (11731650_a_at) / Fold change /veh LOC100653217 /// NTM (11731650_a_at) / RFU MAPK11 (11762145_a_at) / Fold change /veh MAPK11 (11762145_a_at) / RFU FIZ1 (11724087_x_at) / Fold change /veh FIZ1 (11724087_x_at) / RFU OASL (11726364_x_at) / Fold change /veh OASL (11726364_x_at) / RFU SOX15 (11748057_x_at) / Fold change /veh SOX15 (11748057_x_at) / RFU CD79A (11719716_a_at) / Fold change /veh CD79A (11719716_a_at) / RFU HIST1H1D (11736915_at) / Fold change /veh HIST1H1D (11736915_at) / RFU CASKIN2 (11723855_a_at) / Fold change /veh CASKIN2 (11723855_a_at) / RFU LOC730098 (11760151_x_at) / Fold change /veh LOC730098 (11760151_x_at) / RFU OR4N2 (11742367_at) / Fold change /veh OR4N2 (11742367_at) / RFU PRRT2 (11749266_a_at) / Fold change /veh PRRT2 (11749266_a_at) / RFU SNX32 (11753110_a_at) / Fold change /veh SNX32 (11753110_a_at) / RFU CDHR5 (11726645_a_at) / Fold change /veh CDHR5 (11726645_a_at) / RFU RCAN1 (11760418_a_at) / Fold change /veh RCAN1 (11760418_a_at) / RFU FAM167A (11723789_a_at) / Fold change /veh FAM167A (11723789_a_at) / RFU FAM26E (11764081_at) / Fold change /veh FAM26E (11764081_at) / RFU ISYNA1 (11749810_s_at) / Fold change /veh ISYNA1 (11749810_s_at) / RFU ACY1 (11761880_at) / Fold change /veh ACY1 (11761880_at) / RFU 11764098_at / Fold change /veh 11764098_at / RFU SAMD14 (11745864_x_at) / Fold change /veh SAMD14 (11745864_x_at) / RFU NPB (11741838_a_at) / Fold change /veh NPB (11741838_a_at) / RFU TMPRSS6 (11731388_a_at) / Fold change /veh TMPRSS6 (11731388_a_at) / RFU KRTAP10-2 (11738614_at) / Fold change /veh KRTAP10-2 (11738614_at) / RFU ARHGAP8 /// PRR5-ARHGAP8 (11727945_x_at) / Fold change /veh ARHGAP8 /// PRR5-ARHGAP8 (11727945_x_at) / RFU KRTAP5-7 /// NADSYN1 (11734609_at) / Fold change /veh KRTAP5-7 /// NADSYN1 (11734609_at) / RFU RASL12 (11751679_a_at) / Fold change /veh RASL12 (11751679_a_at) / RFU CDKN2B (11736163_a_at) / Fold change /veh CDKN2B (11736163_a_at) / RFU PRF1 (11729649_at) / Fold change /veh PRF1 (11729649_at) / RFU, ZNF638 /// ZNF638-IT1 / Fold change vs veh, ZNF638 /// ZNF638-IT1 / RFU, PANK3 / Fold change vs veh, PANK3 / RFU, SH3YL1 / Fold change vs veh, SH3YL1 / RFU, ZEB2 / Fold change vs veh, ZEB2 / RFU, NRIP1 / Fold change vs veh, NRIP1 / RFU, PTTG1IP / Fold change vs veh, PTTG1IP / RFU, CAPN2 / Fold change vs veh, CAPN2 / RFU, MED14 / Fold change vs veh, MED14 / RFU, SNORA58 / Fold change vs veh, SNORA58 / RFU, C1orf63 / Fold change vs veh, C1orf63 / RFU, LRRFIP1 / Fold change vs veh, LRRFIP1 / RFU, NDUFAF7 / Fold change vs veh, NDUFAF7 / RFU, SLC12A2 / Fold change vs veh, SLC12A2 / RFU, IBTK / Fold change vs veh, IBTK / RFU, ESF1 / Fold change vs veh, ESF1 / Fold change vs veh, TMEM50B / RFU, TAOK1 / Fold change vs veh, TAOK1 / RFU, ACBD3 / Fold change vs veh, ACBD3 / RFU, TMA16 / Fold change vs veh, TMA16 / RFU, RWDD3 / Fold change vs veh, RWDD3 / RFU, BCAT1 / Fold change vs veh, BCAT1 / RFU, EDEM3 / Fold change vs veh, EDEM3 / RFU, TMEM33 / Fold change vs veh, TMEM33 / RFU, WDR75 / Fold change vs veh, WDR75 / RFU, AHCTF1 / Fold change vs veh, AHCTF1 / RFU, TFRC / Fold change vs veh, TFRC / RFU, ZDHHC17 / Fold change vs veh, ZDHHC17 / RFU, NOM1 / Fold change vs veh, NOM1 / RFU, ARL8B / Fold change vs veh, ARL8B / RFU, ZBTB11 / Fold change vs veh, ZBTB11 / RFU, TAMM41 / Fold change vs veh, TAMM41 / RFU, KIAA1704 /// LOC100996395 / Fold change vs veh, KIAA1704 /// LOC100996395 / RFU, ING1 / Fold change vs veh, ING1 / RFU, TRMT61B / Fold change vs veh, TRMT61B / RFU, FUBP3 / Fold change vs veh, FUBP3 / RFU, TP53 / Fold change vs veh, TP53 / RFU, TNKS2 / Fold change vs veh, TNKS2 / RFU, ZFP14 / Fold change vs veh, ZFP14 / RFU, ACTR2 / Fold change vs veh, ACTR2 / RFU, PPP3R1 / Fold change vs veh, PPP3R1 / RFU, PIK3R1 / Fold change vs veh, PIK3R1 / RFU, HNRNPA1 / Fold change vs veh, HNRNPA1 / RFU, RNF170 / Fold change vs veh, RNF170 / RFU, ZNF28 / Fold change vs veh, ZNF28 / RFU, RNGTT / Fold change vs veh, RNGTT / RFU, OGT / Fold change vs veh, OGT / RFU, BRD1 / Fold change vs veh, BRD1 / RFU, MARS / Fold change vs veh, MARS / RFU, ZNF655 / Fold change vs veh, ZNF655 / RFU, FAHD1 / Fold change vs veh, FAHD1 / RFU, BDP1 / Fold change vs veh, BDP1 / RFU, LRRCC1 / Fold change vs veh, LRRCC1 / RFU, ARID1A / Fold change vs veh, ARID1A / RFU, ZNF146 / Fold change vs veh, ZNF146 / RFU, ZNF330 / Fold change vs veh, ZNF330 / RFU, GPN3 / Fold change vs veh, GPN3 / RFU, C9orf123 / Fold change vs veh, C9orf123 / RFU, N4BP2L2 / Fold change vs veh, N4BP2L2 / RFU, ARFIP1 / Fold change vs veh, ARFIP1 / RFU, FAM179B / Fold change vs veh, FAM179B / RFU, BCL10 / Fold change vs veh, BCL10 / RFU, UHRF1BP1L / Fold change vs veh, UHRF1BP1L / RFU, BET1 / Fold change vs veh, BET1 / RFU, CNOT2 / Fold change vs veh, CNOT2 / RFU, ZNF268 / Fold change vs veh, ZNF268 / Fold change vs veh, ZNF507 / RFU, DGCR2 / Fold change vs veh, DGCR2 / RFU, WDSUB1 / Fold change vs veh, WDSUB1 / Fold change vs veh, HSP90B1 /// MIR3652 / RFU, ADSS / Fold change vs veh, ADSS / RFU, GK / Fold change vs veh, GK / RFU, ZNF148 / Fold change vs veh, ZNF148 / RFU, TAF9 / Fold change vs veh, TAF9 / RFU, SLC1A5 / Fold change vs veh, SLC1A5 / RFU, SLMO2 / Fold change vs veh, SLMO2 / RFU, ABCC4 / Fold change vs veh, ABCC4 / RFU, LOC101060439 /// RAP1B / Fold change vs veh, LOC101060439 /// RAP1B / RFU, RFX7 / Fold change vs veh, RFX7 / RFU, GTPBP10 / Fold change vs veh, GTPBP10 / RFU, CNEP1R1 / Fold change vs veh, CNEP1R1 / RFU, BIVM-ERCC5 /// ERCC5 / Fold change vs veh, BIVM-ERCC5 /// ERCC5 / RFU, ILF3 / Fold change vs veh, ILF3 / RFU 11762660_at / Fold change /veh 11762660_at / RFU VCAN (11757783_s_at) / Fold change /veh VCAN (11757783_s_at) / RFU DDX43 (11728927_at) / Fold change /veh DDX43 (11728927_at) / RFU KRT8 (11758188_x_at) / Fold change /veh KRT8 (11758188_x_at) / RFU NKD1 (11759106_at) / Fold change /veh NKD1 (11759106_at) / RFU SRD5A1 (11742802_a_at) / Fold change /veh SRD5A1 (11742802_a_at) / RFU TPSAB1 /// TPSB2 (11721975_s_at) / Fold change /veh TPSAB1 /// TPSB2 (11721975_s_at) / RFU GSTM3 (11746129_a_at) / Fold change /veh GSTM3 (11746129_a_at) / RFU IL23R (11737362_x_at) / Fold change /veh IL23R (11737362_x_at) / RFU TMEM51 (11727254_a_at) / Fold change /veh TMEM51 (11727254_a_at) / RFU PIWIL2 (11732686_x_at) / Fold change /veh PIWIL2 (11732686_x_at) / RFU ORM1 (11744905_x_at) / Fold change /veh ORM1 (11744905_x_at) / RFU CCDC152 (11743942_at) / Fold change /veh CCDC152 (11743942_at) / RFU ECM1 (11717891_a_at) / Fold change /veh ECM1 (11717891_a_at) / RFU IL23R (11748794_a_at) / Fold change /veh IL23R (11748794_a_at) / RFU TNFAIP8L3 (11732012_x_at) / Fold change /veh TNFAIP8L3 (11732012_x_at) / RFU MBOAT4 (11741988_at) / Fold change /veh MBOAT4 (11741988_at) / RFU 11764193_at / Fold change /veh 11764193_at / RFU TMEM53 (11763286_at) / Fold change /veh TMEM53 (11763286_at) / RFU MAGEB2 (11727129_at) / Fold change /veh MAGEB2 (11727129_at) / RFU TMEM200A (11744735_a_at) / Fold change /veh TMEM200A (11744735_a_at) / RFU CCDC152 (11751479_a_at) / Fold change /veh CCDC152 (11751479_a_at) / RFU FAM211A (11726209_a_at) / Fold change /veh FAM211A (11726209_a_at) / RFU RGS16 (11746705_a_at) / Fold change /veh RGS16 (11746705_a_at) / RFU VCAN (11755009_s_at) / Fold change /veh VCAN (11755009_s_at) / RFU RHOB (11743442_s_at) / Fold change /veh RHOB (11743442_s_at) / RFU RGS16 (11720943_a_at) / Fold change /veh RGS16 (11720943_a_at) / RFU RGS16 (11720944_at) / Fold change /veh RGS16 (11720944_at) / RFU, VPS4B / Fold change vs veh, VPS4B / RFU, CREB1 / Fold change vs veh, CREB1 / RFU, DNAJC13 / Fold change vs veh, DNAJC13 / RFU, GNAQ / Fold change vs veh, GNAQ / RFU, CDK5R1 / Fold change vs veh, CDK5R1 / RFU, ZRANB3 / Fold change vs veh, ZRANB3 / RFU, CUL4A / Fold change vs veh, CUL4A / RFU, CCNY / Fold change vs veh, CCNY / RFU, UFL1 / Fold change vs veh, UFL1 / RFU, COG3 / Fold change vs veh, COG3 / RFU, DIAPH2 / Fold change vs veh, DIAPH2 / RFU, SKA2 / Fold change vs veh, SKA2 / RFU, AFF3 / Fold change vs veh, AFF3 / RFU, LMF1 / Fold change vs veh, LMF1 / RFU, IPO11 / Fold change vs veh, IPO11 / RFU, DFFB / Fold change vs veh, DFFB / RFU, FOXP1 / Fold change vs veh, FOXP1 / RFU, CARD8 / Fold change vs veh, CARD8 / RFU, STRN3 / Fold change vs veh, STRN3 / RFU, ADK / Fold change vs veh, ADK / RFU, RASSF2 / Fold change vs veh, RASSF2 / RFU, WIPF1 / Fold change vs veh, WIPF1 / RFU, LARP1B / Fold change vs veh, LARP1B / RFU, RASA1 / Fold change vs veh, RASA1 / RFU, RB1 / Fold change vs veh, RB1 / RFU, PPFIA1 / Fold change vs veh, PPFIA1 / RFU, MAT2A / Fold change vs veh, MAT2A / RFU, CCT5 / Fold change vs veh, CCT5 / RFU, WDR92 / Fold change vs veh, WDR92 / RFU, CUX1 / Fold change vs veh, CUX1 / RFU, TTC7A / Fold change vs veh, TTC7A / RFU, TMEM135 / Fold change vs veh, TMEM135 / RFU, DEPTOR / Fold change vs veh, DEPTOR / RFU, CPM / Fold change vs veh, CPM / RFU, DNAJB6 / Fold change vs veh, DNAJB6 / RFU, CACNA2D3 / Fold change vs veh, CACNA2D3 / RFU, DTX4 / Fold change vs veh, DTX4 / RFU, TFCP2 / Fold change vs veh, TFCP2 / RFU, GMCL1 /// GMCL1P1 / Fold change vs veh, GMCL1 /// GMCL1P1 / RFU, AEBP2 / Fold change vs veh, AEBP2 / RFU, SNHG1 /// SNORD22 /// SNORD25 /// SNORD26 /// SNORD27 /// SNORD28 /// SNORD29 /// SNORD31 / Fold change vs veh, SNHG1 /// SNORD22 /// SNORD25 /// SNORD26 /// SNORD27 /// SNORD28 /// SNORD29 /// SNORD31 / Fold change (Aza/veh), C12orf56 (ProbeSet 11735607_a_at) / Fold change (ACY-1035/veh), C12orf56 (ProbeSet 11735607_a_at) / Fold change (Aza/veh), FGFR1OP (ProbeSet 11751329_s_at) / Fold change (ACY-1035/veh), FGFR1OP (ProbeSet 11751329_s_at) / Fold change (Aza/veh), VPS36 (ProbeSet 11739960_a_at) / Fold change (ACY-1035/veh), VPS36 (ProbeSet 11739960_a_at) / RFU SYPL1 (11715823_x_at) / Fold change /veh SYPL1 (11715823_x_at) / RFU IGFBP7 (11715501_s_at) / Fold change /veh IGFBP7 (11715501_s_at) / RFU REEP3 (11722064_at) / Fold change /veh REEP3 (11722064_at) / RFU IGLL1 (11728026_x_at) / Fold change /veh IGLL1 (11728026_x_at): dose or concentration left out as unconfirmed
Settings: MV-4-11 cells, 48 hours

Nc1ncn([C@@H]2O[C@H](CO)[C@@H](O)[C@H]2O)c(=O)n1 [azacitidine]
Fold change /veh TMEM53 (11763286_at): 1.48
